# Experimental data as given in EP1330253B1, “USE OF BIOACTIVE FRACTION FROM COW URINE DISTILLATE ('GO MUTRA') AS A BIO-ENHANCER OF ANTI-INFECTIVE, ANTI-CANCER AGENTS AND NUTRIENTS” (Council of Scientific and Industrial Research, priority 2000, dated 2002).
# Read-outs that look alike come from different tables or passages of the source.
# Assays:
# Bacillus subtilis = test: Bio-enhancement of anti-infective agents, broth assay with viable cell count; format: cell-based; conditions: for Fold enhancement in antibiotic activity: cow urine distillate 1 µl/ml
# Protocol: (§1) • a) The minimum inhibitory concentration (MIC) of antibiotic is determined against Escherichia coli (equivalent of ATCC 10536), Bacillus subtilis (equivalent of ATCC 6015) and Mycobacterium smegmatis (equivalent of ATCC 10231) in broth and disc diffusion assay. • b) The antibiotics agents at concentrations 1/4, 1/3, 1/2 and equal to MIC are added alone and in combination with the test compound at varying concentrations on disc and in broth to evaluate the comparative inhibition. • c) These combination showing significant advantage or higher activity than antibiotic alone in terms of enhanced inhibition of bacterial growth (large inhibition zone in disc diffusion and affectivity of lower concentration in broth assay) are picked up for future testing. • d) In broth assay the activity is quantified by counting number of viable cells in a given treatment and converted in fold enhancement by combination compared to antibiotic / drug alone in the killing percentage of cells. • e) The pre-treatment assay followed to determine whether the compound is required along with antibiotic to enhance its activity or even its withdrawal after treatment or prior to antibiotic treatment would benefit. For this, the cells are treated with compound for 4 to 8 hours and then washed free of it by centrifugation and washing in sterile water. This was followed by treatment with antibiotic as in steps b to d.
# (§2) In the next step of elucidation of the enhancer action, the applicants experimented with the killing activities of different antibiotics against the bacteria singly and in combination with the test component (cow urine distillate) following the method described above. These experiments are being described in the following examples. […] In all the experiments the cow urine distillate concentration was kept at 1 µl/ml, unless it is specifically mentioned.
# Mycobacterium smegmatis = test: as above; format: cell-based; conditions: for Fold enhancement in antibiotic activity: cow urine distillate 1 µl/ml
# Protocol: as §1, §2
# Escherichia coli = test: as above; format: cell-based; conditions: for Fold enhancement in antibiotic activity: cow urine distillate 1 µl/ml
# Protocol: as §1, §2
# [1] = Bioenhancement of antifungal agent, minimum inhibitory concentration; format: cell-based; conditions: active fraction Gm-IV kept at 10 µg/ml in the combination
# [2] = tested on: oxyR mutant of bacterium Escherichia coli; format: cell-based; conditions: for Fold enhancement in isoniazid/H2O2 activity: cow urine distillate 0.001 µl/ml
# Protocol: For this, the cells are treated with compound for 4 to 8 hours and then washed free of it by centrifugation and washing in sterile water. This was followed by treatment with antibiotic as in steps b to d.
# [3] = for OD measured as Absorbance (specific to the compound maxima) across the membrane in receiving tube after 1 hr / OD measured as Absorbance (specific to the compound maxima) across the membrane in receiving tube after 2 hr / OD measured as Absorbance (specific to the compound maxima) across the membrane in receiving tube after 3 hr / OD measured as Absorbance (specific to the compound maxima) across the membrane in receiving tube after 4hr / OD measured as Absorbance (specific to the compound maxima) across the membrane in receiving tube after 5 hr / OD measured as Absorbance (specific to the compound maxima) across the membrane in receiving tube after 6 hr: Rifampicin 1mg/ml, fraction Gm-IV 1.0µg/ml
# MCF-7 = test: Bio-enhancement of anti-cancer agents, viable cell count; format: cell-based; conditions: distillate at 1 µl/ml
# Protocol: • a) MCF-7 (Breast cancer commercial cell line obtained from National Center for Cell Sciences (NCCS), Pune) is inoculated at a density of about 0.1 X 10^6 cells in MEM medium in the wells of 24 well plate. • b) This is replaced with fresh medium after 18 hours in each well. • c) The test component (s) is added at desired concentrations in different wells just after the medium replacement. • d) Observations are recorded on the cell count after 36 hours for which the allowing steps are required. • i. The medium is removed from the wells. • ii. The wells are rinsed with 1ml PBS (Phosphate buffer saline). • iii. To each well 500 µl of freshly prepared trypsin (0.1% in PBS) solution is added. • iv. Trypsin solution is removed after 30 seconds and the plate is gently tapped till the cells are released from the plate surface. • v. Fresh 1 ml of MEM growth medium is added and agitated with a pipette to obtain a cell suspension. • vi. 10 µl of cell suspension is taken on the haemocytometer and a cover glass is placed over the counting chamber. • vii. The number of viable cells is counted in 5 big squares and the readings are taken from 5 microscopic fields to determine the average. • viii. The cell count (titer per ml) in the original sample is then calculated as average count X 10^3.
# [4] = antibiotic 0.1 µg/ml + cow urine distillate 1 µl/ml
# [5] = antibiotic 0.5 µg/ml + cow urine distillate 1 µl/ml
# [6] = antibiotic 0.05 µg/ml + cow urine distillate 1 µl/ml
smiles,measurement,setting,value
CC1(C)S[C@@H]2[C@H](NC(=O)[C@H](N)c3ccccc3)C(=O)N2[C@H]1C(=O)O [Ampicillin],Survival fraction of viable cells upon treatment with antibiotic alone,Bacillus subtilis; antibiotic 0.1 µg/ml,1.00
same,Survival fraction of viable cells upon treatment with antibiotic + cow urine distillate combination,Bacillus subtilis; [4],0.3
same,Fold enhancement in antibiotic activity,Bacillus subtilis; antibiotic 0.1 µg/ml,3.3
same,Survival fraction of viable cells upon treatment with antibiotic alone,Bacillus subtilis; antibiotic 0.5 µg/ml,0.18
same,Survival fraction of viable cells upon treatment with antibiotic + cow urine distillate combination,Bacillus subtilis; [5],0.06
same,Fold enhancement in antibiotic activity,Bacillus subtilis; antibiotic 0.5 µg/ml,3.0
same,Survival fraction of viable cells upon treatment with antibiotic alone,Mycobacterium smegmatis; antibiotic 0.5 µg/ml,0.07
same,Survival fraction of viable cells upon treatment with antibiotic + cow urine distillate combination,Mycobacterium smegmatis; [5],0.006
same,Fold enhancement in antibiotic activity,Mycobacterium smegmatis; antibiotic 0.5 µg/ml,11.6
same,Survival fraction of viable cells upon treatment with antibiotic alone,Escherichia coli; antibiotic 4 µg/ml,1.11
same,Survival fraction of viable cells upon treatment with amlibiotic + cow urine distillate combination,Escherichia coli; antibiotic 4 µg/ml + cow urine distillate 1 µl/ml,0.60
same,Fold enhancement in antibiotic activity,Escherichia coli; antibiotic 4 µg/ml,1.85
same,Survival fraction of viable cells upon treatment with antibiotic alone,Escherichia coli; antibiotic 6 µg/ml,0.09
same,Survival fraction of viable cells upon treatment with amlibiotic + cow urine distillate combination,Escherichia coli; antibiotic 6 µg/ml + cow urine distillate 1 µl/ml,0.02
same,Fold enhancement in antibiotic activity,Escherichia coli; antibiotic 6 µg/ml,4.50
same,Survival fraction of viable cells upon treatment with antibiotic alone,Escherichia coli; antibiotic 8 µg/ml,0.05
same,Survival fraction of viable cells upon treatment with amlibiotic + cow urine distillate combination,Escherichia coli; antibiotic 8 µg/ml + cow urine distillate 1 µl/ml,0.01
same,Fold enhancement in antibiotic activity,Escherichia coli; antibiotic 8 µg/ml,5.00
Clc1ccccc1C(c1ccccc1)(c1ccccc1)n1ccnc1 [Clotrimazol],Fold enhancement,[1],0.0
same,Minimum inhibitory Concentration (MIC),[1],4.40 µg/mL
"OO [Hydrogen peroxide (H2O2), Hydrogen peroxide]",Viable cell count,[2]; 0.003 %v/v,7.14 x10^7
same,Viable cell count,[2]; 0.003 %v/v + cow urine distillate 0.001 µl/ml,1.2 x10^7
same,Fold enhancement in isoniazid/H2O2 activity,[2]; 0.003 %v/v,5.9
NNC(=O)c1ccncc1 [Isoniazid],Viable cell count,[2]; 250µg/ml,7.5 x10^7
same,Viable cell count,[2]; 250µg/ml + cow urine distillate 0.001 µl/ml,0.99 x10^7
same,Fold enhancement in isoniazid/H2O2 activity,[2]; 250µg/ml,7.5
same,enhancement action for INH,"[2]; distillate at 10-50 thousand-fold dilution in the final volume of culture, organism not stated",showed enhancement action
CO[C@H]1/C=C/O[C@@]2(C)Oc3c(C)c(O)c4c(O)c(c(/C=N/N5CCN(C)CC5)c(O)c4c3C2=O)NC(=O)/C(C)=C\C=C\[C@H](C)[C@H](O)[C@@H](C)[C@@H](O)[C@@H](C)[C@H](OC(C)=O)[C@@H]1C [Rifampicin],OD measured as Absorbance (specific to the compound maxima) across the membrane in receiving tube after 1 hr,[3]; A340,0.0097
same,OD measured as Absorbance (specific to the compound maxima) across the membrane in receiving tube after 2 hr,[3]; A340,0.0214
same,OD measured as Absorbance (specific to the compound maxima) across the membrane in receiving tube after 3 hr,[3]; A340,0.0334
same,OD measured as Absorbance (specific to the compound maxima) across the membrane in receiving tube after 4hr,[3]; A340,0.0771
same,OD measured as Absorbance (specific to the compound maxima) across the membrane in receiving tube after 5 hr,[3]; A340,0.0858
same,OD measured as Absorbance (specific to the compound maxima) across the membrane in receiving tube after 6 hr,[3]; A340,0.0910
same,OD measured as Absorbance (specific to the compound maxima) across the membrane in receiving tube after 1 hr,[3]; A475,0.0177
same,OD measured as Absorbance (specific to the compound maxima) across the membrane in receiving tube after 2 hr,[3]; A475,0.0284
same,OD measured as Absorbance (specific to the compound maxima) across the membrane in receiving tube after 3 hr,[3]; A475,0.0309
same,OD measured as Absorbance (specific to the compound maxima) across the membrane in receiving tube after 4hr,[3]; A475,0.0412
same,OD measured as Absorbance (specific to the compound maxima) across the membrane in receiving tube after 5 hr,[3]; A475,0.0484
same,OD measured as Absorbance (specific to the compound maxima) across the membrane in receiving tube after 6 hr,[3]; A475,0.0496
same,enhancement of bioavailability across the mammalian gut membrane,"[3]; with the sample, goat intestine, within 2 hours, keeps increasing upto 4 hours",enhancement of bioavailability
same,Survival fraction of viable cells upon treatment with antibiotic alone,Bacillus subtilis; antibiotic 0.005 µg/ml,1.1
same,Survival fraction of viable cells upon treatment with antibiotic + cow urine distillate combination,Bacillus subtilis; antibiotic 0.005 µg/ml + cow urine distillate 1 µl/ml,0.28
same,Fold enhancement in antibiotic activity,Bacillus subtilis; antibiotic 0.005 µg/ml,5.5
same,Survival fraction of viable cells upon treatment with antibiotic alone,Bacillus subtilis; antibiotic 0.05 µg/ml,0.03
same,Survival fraction of viable cells upon treatment with antibiotic + cow urine distillate combination,Bacillus subtilis; [6],0.01
same,Fold enhancement in antibiotic activity,Bacillus subtilis; antibiotic 0.05 µg/ml,3.0
same,Survival fraction of viable cells upon treatment with antibiotic alone,Mycobacterium smegmatis; antibiotic 0.05 µg/ml,0.008
same,Survival fraction of viable cells upon treatment with antibiotic + cow urine distillate combination,Mycobacterium smegmatis; [6],0.0001
same,Fold enhancement in antibiotic activity,Mycobacterium smegmatis; antibiotic 0.05 µg/ml,80
same,Survival fraction of viable cells upon treatment with antibiotic alone,Mycobacterium smegmatis; antibiotic 0.1 µg/ml,0.006
same,Survival fraction of viable cells upon treatment with antibiotic + cow urine distillate combination,Mycobacterium smegmatis; [4],0.0036
same,Fold enhancement in antibiotic activity,Mycobacterium smegmatis; antibiotic 0.1 µg/ml,1.5
same,Survival fraction of viable cells upon treatment with antibiotic alone,Escherichia coli; antibiotic 10 µg/ml,0.86
same,Survival fraction of viable cells upon treatment with amlibiotic + cow urine distillate combination,Escherichia coli; antibiotic 10 µg/ml + cow urine distillate 1 µl/ml,0.17
same,Fold enhancement in antibiotic activity,Escherichia coli; antibiotic 10 µg/ml,5.0
same,Survival fraction of viable cells upon treatment with antibiotic alone,Escherichia coli; antibiotic 30 µg/ml,0.05
same,Survival fraction of viable cells upon treatment with amlibiotic + cow urine distillate combination,Escherichia coli; antibiotic 30 µg/ml + cow urine distillate 1 µl/ml,0.007
same,Fold enhancement in antibiotic activity,Escherichia coli; antibiotic 30 µg/ml,7.1
"CC(=O)O[C@H]1C(=O)[C@@]2(C)[C@H]([C@H](OC(=O)c3ccccc3)[C@]3(O)C[C@H](OC(=O)[C@H](O)[C@@H](NC(=O)c4ccccc4)c4ccccc4)C(C)=C1C3(C)C)[C@]1(OC(C)=O)CO[C@@H]1C[C@@H]2O [Taxol, Paclitaxel]",enhancement in the activity of taxol,MCF-7,at least 5 folds
